Measurements: publication doi:10.1101/2025.08.06.669005v1 (bioRxiv, 2025)
Starred links: 1 amine or outer side, 2 acyl side, 3 side chain; linkers in the order of their positions; H or OH if unused. Positions of bridges follow the written chain, without caps; N, C: chain ends. Non-standard residues stand in square brackets, D forms with d. Residues, ends and D or L forms follow the SMILES beside them. Chains are numbered I, II in the order given. X1 = O=C(O)C[C@@H](C(=O)[*:2])N(c1ccc([N+](=O)[O-])c2nonc12)[*:1]; Nle = CCCC[C@H](N)C(=O)O; Aib = CC(C)(N)C(=O)O

Legend:
EVs = conditions: placed in cultured media without separation steps; cited from earlier work
sEVs = conditions: previous data; cited from earlier work
HeLa cells [1] = assay: Membrane perturbation assay; type: cell-based; conditions: PI 3.5 µM, 30 min, 37 °C, CLSM, n = 37–65 cells
PANC-1 cells [2] = assay: Membrane perturbation assay; type: cell-based; conditions: PI 3.5 µM, 30 min, 37 °C, CLSM, n = 28–58 cells
[3] = tested on: sEV-mimicking liposomes (POPC:cholesterol:POPS = 75:15:10 mol%); assay: Peptide binding to sEV-mimicking liposomes; conditions: ratio of Kd values for sEV-mimicking liposomes
HeLa cells [4] = assay: Cellular uptake by CLSM; type: cell-based; conditions: 2 at 1 µM alone, 37 °C, more than 1 h
PANC-1 cells [5] = assay: Cellular uptake by CLSM; type: cell-based; conditions: 2 at 1 µM alone, 37 °C, more than 1 h
cancer cells = assay: sEV drug-loading system with a hydrophobic compound; type: cell-based; conditions: compound loaded onto sEVs; data not shown
MSC-sEVs = assay: sEV binding of 2 in solution in the presence of heparin; conditions: heparin 100 or 500 µg/mL; n = 3
ζ-potential measurement = type: physicochemical; conditions: non- and DiD-labeled MSC-sEVs; Zetasizer Nano ZS, 25 °C; n = 5

Compound	ratio of the dead cells stained by PI (HeLa cells [1])	ratio of the dead cells stained by PI (PANC-1 cells [2])	also measured
CCCC[C@H](NC(=O)[C@H](CCCCN)NC(=O)[C@H](CO)NC(=O)[C@H](CC(C)C)NC(=O)C(C)(C)NC(=O)[C@H](CC(=O)O)NC(=O)[C@@H](NC(=O)C(C)(C)NC(=O)[C@H](CCCCN)NC(=O)[C@H](CC(N)=O)NC(=O)[C@H](CC(C)C)NC(=O)[C@H](CCCC)NC(=O)[C@H](CCCCN)NC(=O)[C@H](CC(C)C)NC(=O)[C@H](CC(C)C)NC(=O)C(C)(C)NC(=O)[C@H](CCCCN)NC(=O)[C@H](CC(=O)O)Nc1ccc([N+](=O)[O-])c2nonc12)[C@@H](C)O)C(=O)NCC(=O)N[C@@H](CO)C(=O)NCC(=O)N[C@@H](CO)C(=O)N[C@@H](CCCCN)C(N)=O [Peptide 1] (HELM PEPTIDE1{[O=C(O)C[C@H](Nc1ccc([N+](=O)[O-])c2nonc12)C(=O)[*:2]].K.[Aib].L.L.K.[Nle].L.N.K.[Aib].T.D.[Aib].L.S.K.[Nle].G.S.G.S.K.[am]}$$$$V2.0)			time to selective binding to EVs (EVs): ≤ 5 min; amount of peptide bound at the plateau level (sEVs): 1,361 peptides/vesicle
biotin-DKBLLKXLNKBTDBLSKX-GSGS-C-NH2 | biotin-DKBLLKXLNKBTDBLSKX-GSGS-C-NH2 (disulfide) [Peptide 8]	0.0%	1.9%	
I: H-[X1]K[Aib]LLK[Nle]LNK[Aib]TD[Aib]LSK[Nle]GSGSC-NH2 / II: H-[X1]K[Aib]LLK[Nle]LNK[Aib]TD[Aib]LSK[Nle]GSGSC-NH2 (disulfide I:23-II:23) [Peptide 2]			affinity relative to that of 1 [3]: 15.7 fold; NBD signals in cells in the absence of DiD-MSC-sEVs (uptake of peptide alone) (HeLa cells [4]): negligible; NBD signals in cells in the absence of DiD-MSC-sEVs (uptake of peptide alone) (PANC-1 cells [5]): negligible
CO [MeOH]	96.5%	97.3%	
CC[C@@]1(O)C(=O)OCc2c1cc1n(c2=O)Cc2cc3ccccc3nc2-1 [camptothecin]			performance of the sEV drug-loading system (cancer cells): did not work effectively
Heparin			fluorescence intensity of NBD of 2 in the presence of MSC-sEVs in solution (MSC-sEVs): did not influence
DKBLLKXLNKBTDBLSKX-GSGS-C-NH2 (disulfide) [2′]			change of ζ-potential of sEVs in the presence of the peptide (ζ-potential measurement): slight increase in ζ-potential
biotin-IWIAQELRRIGDEFNZYYAZR-NH2 (sidechain bridge or staple) [Peptide 10]	4.5%	7.1%	
biotin-LSQETFZ’DLWKLLZEN-NH2 (sidechain bridge or staple) [Peptide 9]	6.5%	3.3%	
